Assay results published in PubChem BioAssay (NCI).
Several values for one entry are separate records, joined by “and”; a condition that tells them apart may be missing. Equal entries are not always repeated.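 Method: 48-hour compound exposure of cells in 96-well plates, five concentrations, linear interpolation of endpoints. Here, GI50 denotes the concentration required for 50% inhibition of growth. Definition used: TGI = concentration required for complete inhibition of growth.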

Legend:
Test in all cases: inhibition of tumour cell growth, NCI panel, 48 h
SK-MEL-28 melanoma = system: SK-MEL-28 melanoma
DMS 114 small cell lung = system: DMS 114 small cell lung
OVCAR-3 ovarian = system: OVCAR-3 ovarian
COLO 205 colon = system: COLO 205 colon
SR leukemia = system: SR leukemia
IGROV1 ovarian = system: IGROV1 ovarian
SNB-78 CNS = system: SNB-78 CNS
SN12C renal = system: SN12C renal
LXFL 529 NSCLC = system: LXFL 529 NSCLC
HS 578T breast = system: HS 578T breast

`CN(C)C(=S)/N=c1\ss/c(=N\C(=S)N(C)C)n1-c1ccc(Cl)c(Cl)c1` showed a TGI (SK-MEL-28 melanoma) greater than 100 µM, a TGI (DMS 114 small cell lung) greater than 100 µM and a TGI (OVCAR-3 ovarian) greater than 100 µM. For the same compound, the TGI (COLO 205 colon) was greater than 100 µM, the TGI (SR leukemia) was greater than 100 µM and the TGI (IGROV1 ovarian) was greater than 100 µM. The TGI (SNB-78 CNS) was greater than 100 µM and the TGI (SN12C renal) was greater than 100 µM.

`N.N.N.N.[Cl-].[Co+3].[N-]=[N+]=[N-].[N-]=[N+]=[N-]` showed a GI50 (SK-MEL-28 melanoma) of 60.3 µM, a TGI (SK-MEL-28 melanoma) greater than 100 µM and a GI50 (OVCAR-3 ovarian) greater than 100 µM. The TGI (OVCAR-3 ovarian) was greater than 100 µM, the GI50 (LXFL 529 NSCLC) was greater than 100 µM and the TGI (LXFL 529 NSCLC) was greater than 100 µM. The GI50 (COLO 205 colon) was greater than 100 µM, the TGI (COLO 205 colon) was greater than 100 µM and the GI50 (IGROV1 ovarian) was greater than 100 µM. The TGI (IGROV1 ovarian) was greater than 100 µM, the GI50 (SNB-78 CNS) was greater than 100 µM and the TGI (SNB-78 CNS) was greater than 100 µM. It also gave a GI50 (SN12C renal) greater than 100 µM and a TGI (SN12C renal) greater than 100 µM.

With `COc1cc2c(c(OC)n1)[C@]1(O)[C@H](O)[C@H](CN(C)C)[C@@H](c3ccccc3)[C@]1(c1ccc(C#N)cc1)O2` the GI50 (SK-MEL-28 melanoma) was 0.0334 µM and 0.0313 µM, the TGI (SK-MEL-28 melanoma) was 0.813 µM and 1.56 µM and the GI50 (OVCAR-3 ovarian) was 0.0334 µM and 0.0146 µM. For the same compound, the TGI (OVCAR-3 ovarian) was 2.78 µM and 1.87 µM, the GI50 (COLO 205 colon) was 0.0114 µM and < 0.0111 µM and the TGI (COLO 205 colon) was 0.0442 µM and 0.0572 µM. The GI50 (HS 578T breast) was 0.0402 µM and 0.0367 µM, the TGI (HS 578T breast) was 1.97 µM and 1.16 µM and the GI50 (SR leukemia) was 0.0246 µM and < 0.0114 µM. The TGI (SR leukemia) was 4.48 µM, the GI50 (IGROV1 ovarian) was 0.0134 µM and < 0.01 µM and the TGI (IGROV1 ovarian) was 2.44 µM and 1.93 µM. The GI50 (SN12C renal) was 0.0156 µM and < 0.0132 µM and the TGI (SN12C renal) was 1.94 µM and 1.61 µM.

In the case of `COc1cc(C2=C(c3cn(C)c4ccccc34)COC2=O)cc(OC)c1OC`, the GI50 (SK-MEL-28 melanoma) is reported as 0.754 µM, the TGI (SK-MEL-28 melanoma) is reported as 29.8 µM and the GI50 (OVCAR-3 ovarian) is reported as 0.0364 µM. The TGI (OVCAR-3 ovarian) was 0.437 µM, the GI50 (COLO 205 colon) was 0.0648 µM and the TGI (COLO 205 colon) was 1.28 µM. For the same compound, the GI50 (HS 578T breast) was 0.159 µM, the TGI (HS 578T breast) was 3.58 µM and the GI50 (SR leukemia) was 0.0219 µM. For the same compound, the TGI (SR leukemia) was greater than 100 µM, the GI50 (IGROV1 ovarian) was 0.0771 µM and the TGI (IGROV1 ovarian) was 21.7 µM. The GI50 (SN12C renal) was 0.593 µM and the TGI (SN12C renal) was greater than 100 µM.

`O=c1[nH]cnc2cccc(Cl)c12` gave a TGI (SK-MEL-28 melanoma) greater than 100 µM, a TGI (OVCAR-3 ovarian) greater than 100 µM and a TGI (COLO 205 colon) greater than 100 µM. It also gave a TGI (HS 578T breast) greater than 100 µM, a TGI (SR leukemia) greater than 100 µM and a TGI (IGROV1 ovarian) greater than 100 µM. The TGI (SN12C renal) was greater than 100 µM.

`COc1ccc(-c2c[nH]c(=S)n2-c2ccc(OC)cc2)cc1` showed a GI50 (SK-MEL-28 melanoma) greater than 50 µM, a TGI (SK-MEL-28 melanoma) greater than 50 µM and a GI50 (OVCAR-3 ovarian) greater than 50 µM. It also gave a TGI (OVCAR-3 ovarian) greater than 50 µM, a GI50 (COLO 205 colon) greater than 50 µM and a TGI (COLO 205 colon) greater than 50 µM. It also gave a GI50 (HS 578T breast) greater than 50 µM, a TGI (HS 578T breast) greater than 50 µM and a GI50 (SR leukemia) greater than 50 µM. It also gave a TGI (SR leukemia) greater than 50 µM, a GI50 (IGROV1 ovarian) greater than 50 µM and a TGI (IGROV1 ovarian) greater than 50 µM. The GI50 (SN12C renal) was greater than 50 µM and the TGI (SN12C renal) was greater than 50 µM.

For `CCOC(=O)CNC(=O)c1ccccc1Nc1ccnc(C(F)(F)F)c1`, the GI50 (SK-MEL-28 melanoma) was 28.1 µM, the TGI (SK-MEL-28 melanoma) was greater than 83.3 µM and the GI50 (OVCAR-3 ovarian) was 20.2 µM. It also gave a TGI (OVCAR-3 ovarian) of 56.9 µM, a GI50 (COLO 205 colon) of 17.8 µM and a TGI (COLO 205 colon) greater than 67.2 µM. The GI50 (HS 578T breast) was 45.5 µM, the TGI (HS 578T breast) was greater than 100 µM and the GI50 (SR leukemia) was 19 µM. For the same compound, the TGI (SR leukemia) was 57.8 µM, the GI50 (IGROV1 ovarian) was 32.2 µM and the TGI (IGROV1 ovarian) was greater than 65.7 µM. The GI50 (SN12C renal) was 36.6 µM and the TGI (SN12C renal) was greater than 79.4 µM.

For `NC(CS/C(Cl)=C/Cl)C(=O)O` (configuration not stated), the GI50 (SK-MEL-28 melanoma) was 43.6 µM, the TGI (SK-MEL-28 melanoma) was greater than 100 µM and the GI50 (OVCAR-3 ovarian) was 49.2 µM. For the same compound, the TGI (OVCAR-3 ovarian) was greater than 100 µM, the GI50 (COLO 205 colon) was 26.6 µM and the TGI (COLO 205 colon) was greater than 69.7 µM. It also gave a GI50 (HS 578T breast) of 55.1 µM, a TGI (HS 578T breast) greater than 100 µM and a GI50 (SR leukemia) of 34.9 µM. It also gave a TGI (SR leukemia) greater than 100 µM, a GI50 (IGROV1 ovarian) greater than 100 µM and a TGI (IGROV1 ovarian) greater than 100 µM. It also gave a GI50 (SN12C renal) of 43.3 µM and a TGI (SN12C renal) greater than 100 µM.

Work on `COc1ccc2c(c1)C(C)Cc1c(ncnc1-n1c(C)nc3ccccc31)N2C` (configuration not stated) yielded a GI50 (SK-MEL-28 melanoma) of 11.1 µM, a TGI (SK-MEL-28 melanoma) of 26.2 µM and a GI50 (OVCAR-3 ovarian) of 2.53 µM. It also gave a TGI (OVCAR-3 ovarian) of 8.79 µM, a GI50 (COLO 205 colon) of 2.76 µM and a TGI (COLO 205 colon) of 11.1 µM. The GI50 (HS 578T breast) was 4.12 µM, the TGI (HS 578T breast) was 25.3 µM and the GI50 (SR leukemia) was 0.345 µM. It also gave a TGI (SR leukemia) of 5.54 µM, a GI50 (IGROV1 ovarian) of 6.3 µM and a TGI (IGROV1 ovarian) of 36.2 µM. For the same compound, the GI50 (SN12C renal) was 13 µM and the TGI (SN12C renal) was 77.6 µM.

For `CCOC(=O)c1c[nH]c2oc(/C=N/N3CC(CN4CCOCC4)OC3=O)cc2c1=O` (configuration not stated), the TGI (SK-MEL-28 melanoma) was greater than 100 µM, the TGI (OVCAR-3 ovarian) was greater than 100 µM and the TGI (COLO 205 colon) was greater than 100 µM. The TGI (HS 578T breast) was greater than 100 µM, the TGI (SR leukemia) was greater than 100 µM and the TGI (IGROV1 ovarian) was greater than 100 µM. The TGI (SN12C renal) was greater than 100 µM.

In the case of `C=CCNC(=O)N(CCC)CCCCC(NC(C)=O)C(=O)NCc1ccccc1` (configuration not stated), the TGI (SK-MEL-28 melanoma) is reported as greater than 100 µM, the TGI (DMS 114 small cell lung) is reported as greater than 100 µM and the TGI (OVCAR-3 ovarian) is reported as greater than 100 µM. For the same compound, the TGI (LXFL 529 NSCLC) was greater than 100 µM, the TGI (COLO 205 colon) was greater than 100 µM and the TGI (IGROV1 ovarian) was greater than 100 µM. It also gave a TGI (SN12C renal) greater than 100 µM.

For `O=C(Nc1ccc(Br)cc1)c1ccc(Cl)c(Cl)c1`, the GI50 (SK-MEL-28 melanoma) was 3.93 µM, the TGI (SK-MEL-28 melanoma) was greater than 100 µM and the GI50 (OVCAR-3 ovarian) was 2.48 µM. The TGI (OVCAR-3 ovarian) was 7.18 µM, the GI50 (COLO 205 colon) was 1.81 µM and the TGI (COLO 205 colon) was 3.7 µM. It also gave a GI50 (HS 578T breast) of 3.8 µM, a TGI (HS 578T breast) greater than 100 µM and a GI50 (SR leukemia) of 4.35 µM. It also gave a TGI (SR leukemia) greater than 100 µM, a GI50 (IGROV1 ovarian) of 2.85 µM and a TGI (IGROV1 ovarian) greater than 100 µM. It also gave a GI50 (SN12C renal) of 3.21 µM and a TGI (SN12C renal) greater than 100 µM.

Work on `COc1ccc2ncn(-c3cc(O[C@H](C)c4ccccc4Cl)c(C(N)=O)s3)c2c1` yielded a GI50 (SK-MEL-28 melanoma) of 0.105 µM, a TGI (SK-MEL-28 melanoma) greater than 25 µM and a GI50 (OVCAR-3 ovarian) of 0.00863 µM. For the same compound, the TGI (OVCAR-3 ovarian) was 1.07 µM, the GI50 (COLO 205 colon) was 0.00953 µM and the TGI (COLO 205 colon) was 0.436 µM. The GI50 (HS 578T breast) was 0.0763 µM, the TGI (HS 578T breast) was 1.26 µM and the GI50 (SR leukemia) was 0.012 µM. The TGI (SR leukemia) was 1.53 µM, the GI50 (IGROV1 ovarian) was 0.0284 µM and the TGI (IGROV1 ovarian) was greater than 25 µM. The GI50 (SN12C renal) was 0.954 µM and the TGI (SN12C renal) was greater than 25 µM.

`COc1ccc2c(c1)[C@@]13CCCC[C@H]1[C@@H](C2)N(C)CC3=O` showed a TGI (SK-MEL-28 melanoma) of 30 µM, a TGI (OVCAR-3 ovarian) of 32.9 µM and a TGI (COLO 205 colon) of 31.2 µM. For the same compound, the TGI (HS 578T breast) was 66.6 µM, the TGI (SR leukemia) was 42 µM and the TGI (IGROV1 ovarian) was 32.8 µM. For the same compound, the TGI (SN12C renal) was 50.4 µM.
